Molecular target: T1, mGlyT-1b (Mus musculus, UniProt P28571)
T1 construct: host or cells: Flp-in-CHO
T1 sequence (P28571 1-651 isoform P28571-2): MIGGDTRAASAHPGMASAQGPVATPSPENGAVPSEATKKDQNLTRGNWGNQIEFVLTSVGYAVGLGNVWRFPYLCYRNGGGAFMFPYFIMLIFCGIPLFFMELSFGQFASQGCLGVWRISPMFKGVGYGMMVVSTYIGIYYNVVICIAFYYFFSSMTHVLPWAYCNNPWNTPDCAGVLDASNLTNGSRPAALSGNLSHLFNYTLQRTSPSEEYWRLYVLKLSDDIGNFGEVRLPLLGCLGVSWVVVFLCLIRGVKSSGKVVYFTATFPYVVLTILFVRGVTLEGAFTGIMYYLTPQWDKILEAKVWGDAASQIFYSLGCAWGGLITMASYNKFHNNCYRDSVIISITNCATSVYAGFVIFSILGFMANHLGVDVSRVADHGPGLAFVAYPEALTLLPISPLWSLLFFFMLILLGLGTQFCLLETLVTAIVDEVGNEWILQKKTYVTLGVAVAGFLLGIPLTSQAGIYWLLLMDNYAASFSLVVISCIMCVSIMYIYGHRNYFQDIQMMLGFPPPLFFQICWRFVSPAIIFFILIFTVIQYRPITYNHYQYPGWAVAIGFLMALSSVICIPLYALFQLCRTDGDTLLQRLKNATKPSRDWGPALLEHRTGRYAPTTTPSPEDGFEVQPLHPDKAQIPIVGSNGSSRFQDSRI
Test: Glycine uptake inhibition assay (mGlyT-1b)
Type: cell-based
Settings: inhibition of [3H]-glycine uptake in Flp-in-CHO cells transfected with mGlyT-1b cDNA; 20 min preincubation at 22° C.; read-out: IC50 (μM) at GlyT-1
Outline: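 Flp-in CHO cells stably expressing mouse GlyT-1b were preincubated with inhibitor (concentration range) for 20 min at 22° C. in pH 7.4 uptake buffer; nonspecific uptake defined with 10 mM glycine. [3H]-glycine 60 nM plus 25 μM unlabelled glycine was then added; cell-associated radioactivity counted by scintillation and IC50 derived.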

IC50 [µM] | Structure (SMILES)
0.007 | C[C@H](Oc1ccc(S(C)(=O)=O)cc1C(=O)N1Cc2cc(F)c(OC3CCOCC3)cc2C1)C(F)(F)F [Example 377, [5-Fluoro-6-(tetrahydro-pyran-4-yloxy)-1,3-dihydro-isoindol-2-yl]-[5-methanesulfonyl-2-((S)-2,2,2-trifluoro-1-methyl-ethoxy)-phenyl]-methanone]
0.035 | CC(C)Oc1ccc(S(C)(=O)=O)cc1C(=O)N1Cc2cc(F)c(OC3CCOCC3)cc2C1 [Example 378, [5-Fluoro-6-(tetrahydro-pyran-4-yloxy)-1,3-dihydro-isoindol-2-yl]-(2-isopropoxy-5-methanesulfonyl-phenyl)-methanone]
0.007 | CS(=O)(=O)c1ccc(OCC(F)(F)C(F)(F)F)c(C(=O)N2Cc3cc(F)c(OC4CCOCC4)cc3C2)c1 [Example 379, [5-Fluoro-6-(tetrahydro-pyran-4-yloxy)-1,3-dihydro-isoindol-2-yl]-[5-methanesulfonyl-2-(2,2,3,3,3-pentafluoro-propoxy)-phenyl]-methanone]
0.005 | CS(=O)(=O)c1ccc(OCC(F)(F)C(F)(F)F)c(C(=O)N2Cc3cc(Cl)c(OC4CCOCC4)cc3C2)c1 [Example 380, [5-Chloro-6-(tetrahydro-pyran-4-yloxy)-1,3-dihydro-isoindol-2-yl]-[5-methanesulfonyl-2-(2,2,3,3,3-pentafluoro-propoxy)-phenyl]-methanone]
0.024 | C[C@H](Oc1ccc(S(C)(=O)=O)cc1C(=O)N1Cc2ccc(-c3ccc(F)cc3)nc2C1)C(F)(F)F [Example 382, [2-(4-Fluoro-phenyl)-5,7-dihydro-pyrrolo[3,4-b]pyridin-6-yl]-[5-methanesulfonyl-2-((S)-2,2,2-trifluoro-1-methyl-ethoxy)-phenyl]-methanone]
